Where “and” joins values, the source holds several entries; their conditions need not be identical. Equal values may be shown once. Inconclusive results and toxic doses are left out. Rule as the data show it: active = T/C of 150% or more; inactive = T/C below 125%.
Test system: L1210 leukemia ip in BDF1 mice, survival T/C
Assay: NCI In Vivo Anticancer Drug Screen. Data for tumor model L1210 Leukemia (intraperitoneal) in B6D2F1 (BDF1) mice
Details: endpoint: mean survival time, higher = longer survival
Outline: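 Each compound was tested against a transplantable tumor grown in mice. The endpoint was survival, with treated animals benchmarked against vehicle controls as a simple ratio.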

[1] = dose: 100.0 mg/kg/injection, schedule: Q01DX009 (ip), vehicle: saline
[2] = dose: 100.0 mg/kg/injection, schedule: Q04DX003 (ip), vehicle: saline
[3] = dose: 200.0 mg/kg/injection, schedule: Q04DX003 (ip), vehicle: saline
[4] = dose: 400.0 mg/kg/injection, schedule: Q04DX003 (ip), vehicle: saline
[5] = dose: 200.0 mg/kg/injection, schedule: Q04DX003 (ip), vehicle: saline sonified
[6] = dose: 400.0 mg/kg/injection, schedule: Q04DX003 (ip), vehicle: saline sonified
[7] = dose: 100.0 mg/kg/injection, schedule: Q04DX003 (ip), vehicle: saline with Tween-80
[8] = dose: 100.0 mg/kg/injection, schedule: Q01DX009 (ip), vehicle: Klucel (hydroxypropylcellulose) (HPC)
[9] = dose: 200.0 mg/kg/injection, schedule: Q01DX009 (ip), vehicle: Klucel (hydroxypropylcellulose) (HPC)
[10] = dose: 100.0 mg/kg/injection, schedule: Q01DX009 (ip), vehicle: other
[11] = dose: 200.0 mg/kg/injection, schedule: Q01DX009 (ip), vehicle: other
[12] = dose: 400.0 mg/kg/injection, schedule: Q01DX009 (ip), vehicle: other
[13] = dose: 50.0 mg/kg/injection, schedule: Q04DX003 (ip), vehicle: Klucel (hydroxypropylcellulose) (HPC)
[14] = dose: 100.0 mg/kg/injection, schedule: Q04DX003 (ip), vehicle: Klucel (hydroxypropylcellulose) (HPC)
[15] = dose: 100.0 mg/kg/injection, schedule: Q01DX001 (ip), vehicle: saline
[16] = dose: 200.0 mg/kg/injection, schedule: Q01DX001 (ip), vehicle: saline
[17] = dose: 400.0 mg/kg/injection, schedule: Q01DX001 (ip), vehicle: saline

Measured: T/C

CC(C)N1c2c(nc(N)[nH]c2=O)NCC1CNc1ccc(C(=O)NC(CCC(=O)O)C(=O)O)cc1 (configuration not stated)
inactive: [1] 102 % of control | [2] 104 % of control | dose: 200.0 mg/kg/injection, schedule: Q01DX009 (ip), vehicle: saline 102 % of control | [3] 98 % of control | dose: 400.0 mg/kg/injection, schedule: Q01DX009 (ip), vehicle: saline 102 % of control | [4] 98 % of control

O=S(=O)(O)/[N+]([O-])=N/O
inactive: dose: 100.0 mg/kg/injection, schedule: Q04DX003 (ip), vehicle: saline sonified 94 % of control | [5] 100 % of control | [6] 95 % of control

Cc1sc(Cc2ccccc2)nc1-c1ccc(N=Cc2ccc(N(CCOS(C)(=O)=O)CCOS(C)(=O)=O)cc2)cc1
inactive: dose: 25.0 mg/kg/injection, schedule: Q04DX003 (ip), vehicle: saline with Tween-80 113 % of control | dose: 50.0 mg/kg/injection, schedule: Q04DX003 (ip), vehicle: saline with Tween-80 123 % of control | [7] 107 % of control and 114 % of control

Cc1cc(C)c(C)c(OC(=O)Nc2cc(Cl)ccc2C)c1
inactive: [8] 94 % of control | [9] 94 % of control | dose: 400.0 mg/kg/injection, schedule: Q01DX009 (ip), vehicle: Klucel (hydroxypropylcellulose) (HPC) 95 % of control

O=[N+]([O-])c1cccc2ncsc12
inactive: [10] 104 % of control | [11] 107 % of control | [12] 104 % of control

CC(=O)Nc1nc(C)c(CCCN(c2ccccc2)S(=O)(=O)c2ccc(N)cc2)c(=O)[nH]1
inactive: dose: 200.0 mg/kg/injection, schedule: Q01DX001 (ip), vehicle: Klucel (hydroxypropylcellulose) (HPC) 88 % of control

Cc1cn[nH]c1-c1ccccc1
inactive: [13] 107 % of control | [14] 104 % of control | dose: 200.0 mg/kg/injection, schedule: Q04DX003 (ip), vehicle: Klucel (hydroxypropylcellulose) (HPC) 94 % of control

COc1ccc(Cc2c3cc(OC)c(OC)cc3cc[n+]2[O-])cc1OC
inactive: [15] 91 % of control | [16] 96 % of control | [17] 96 % of control

O=C(OC(C(=O)O)C(OC(=O)c1ccccc1)C(=O)O)c1ccccc1 (configuration not stated) (tested in a mixture with another compound)
inactive: dose: 15.0 mg/kg/injection, schedule: Q01DX001 (ip), vehicle: carboxymethylcellulose (CMC) 102 % of control | dose: 100.0 mg/kg/injection, schedule: Q01DX001 (ip), vehicle: other 109 % of control | dose: 200.0 mg/kg/injection, schedule: Q01DX001 (ip), vehicle: other 102 % of control | dose: 400.0 mg/kg/injection, schedule: Q01DX001 (ip), vehicle: other 109 % of control

CC(C)NCCC(=O)c1ccc(OCc2ccccc2)cc1
inactive: dose: 25.0 mg/kg/injection, schedule: Q01DX009 (ip), vehicle: saline 106 % of control | dose: 50.0 mg/kg/injection, schedule: Q01DX009 (ip), vehicle: saline 110 % of control | [1] 106 % of control and 119 % of control

O=C1CN(C(=O)CN2C(=O)c3ccccc3C2=O)C2(CCCCC2)O1
inactive: dose: 66.0 mg/kg/injection, schedule: Q04DX003 (ip), vehicle: saline sonified 94 % of control | dose: 150.0 mg/kg/injection, schedule: Q04DX003 (ip), vehicle: saline sonified 101 % of control | [5] 95 % of control | [6] 97 % of control

CC(C)C1=CC23CCC4C(C)(C(=O)O)CCCC4(C)C2CC1C1C(=O)OC(=O)C13 (configuration not stated)
inactive: dose: 25.0 mg/kg/injection, schedule: Q01DX009 (ip), vehicle: Klucel (hydroxypropylcellulose) (HPC) 106 % of control | dose: 25.0 mg/kg/injection, schedule: Q04DX003 (ip), vehicle: Klucel (hydroxypropylcellulose) (HPC) 103 % of control | dose: 50.0 mg/kg/injection, schedule: Q01DX009 (ip), vehicle: Klucel (hydroxypropylcellulose) (HPC) 102 % of control | [13] 101 % of control | [8] 102 % of control | [14] 95 % of control | [9] 91 % of control

COc1ccc(Cl)cc1NC(=O)Nc1c(C)n(C)n(-c2ccccc2)c1=O
inactive: [15] 90 % of control | dose: 100.0 mg/kg/injection, schedule: Q01DX009 (ip), vehicle: saline with Tween-80 89 % of control | [2] 97 % of control | [16] 89 % of control | dose: 200.0 mg/kg/injection, schedule: Q01DX009 (ip), vehicle: saline with Tween-80 89 % of control | [3] 101 % of control | [17] 94 % of control | dose: 400.0 mg/kg/injection, schedule: Q01DX009 (ip), vehicle: saline with Tween-80 87 % of control | [4] 92 % of control

O=S(=O)(F)c1cc(Cl)ccc1C[P+](c1ccccc1)(c1ccccc1)c1ccccc1
inactive: dose: 10.0 mg/kg/injection, schedule: Q04DX003 (ip), vehicle: saline 97 % of control | dose: 20.0 mg/kg/injection, schedule: Q04DX003 (ip), vehicle: saline 89 % of control

CCCCC1(CCC)C(=O)NC(=O)NC1=O
inactive: dose: 75.0 mg/kg/injection, schedule: Q01DX001 (ip), vehicle: saline 102 % of control | dose: 150.0 mg/kg/injection, schedule: Q01DX001 (ip), vehicle: saline 96 % of control | dose: 300.0 mg/kg/injection, schedule: Q01DX001 (ip), vehicle: saline 95 % of control

CCOC(=O)N(C)C1CCC1NC (configuration not stated)
inactive: [2] 98 % of control | [3] 112 % of control | [4] 104 % of control

CC(=O)c1ccc2ccccc2c1O
inactive: [10] 97 % of control | [2] 101 % of control | [11] 103 % of control | [3] 90 % of control | [12] 106 % of control | [4] 88 % of control

CONC(=O)Nc1cccc2ccccc12
inactive: dose: 75.0 mg/kg/injection, schedule: Q01DX001 (ip), vehicle: other 100 % of control | dose: 75.0 mg/kg/injection, schedule: Q04DX003 (ip), vehicle: other 97 % of control | dose: 150.0 mg/kg/injection, schedule: Q01DX001 (ip), vehicle: other 110 % of control | dose: 150.0 mg/kg/injection, schedule: Q04DX003 (ip), vehicle: other 96 % of control | dose: 300.0 mg/kg/injection, schedule: Q01DX001 (ip), vehicle: other 106 % of control | dose: 300.0 mg/kg/injection, schedule: Q04DX003 (ip), vehicle: other 100 % of control

O=S(=O)(Cl)OO/C=C\OOS(=O)(=O)Cl
inactive: [15] 101 % of control | [16] 108 % of control

COc1ccc(/C=N/O)cc1
inactive: dose: 50.0 mg/kg/injection, schedule: Q01DX001 (ip), vehicle: saline 100 % of control | [15] 93 % of control | [16] 100 % of control | [17] 96 % of control

CC(=O)Nc1ccc2scnc2c1
inactive: [7] 112 % of control | dose: 200.0 mg/kg/injection, schedule: Q04DX003 (ip), vehicle: saline with Tween-80 112 % of control | dose: 400.0 mg/kg/injection, schedule: Q04DX003 (ip), vehicle: saline with Tween-80 105 % of control

CN1CCCN(C(c2ccccc2)c2ccc(Cl)cc2)CC1 (configuration not stated)
inactive: dose: 7.81 mg/kg/injection, schedule: Q01DX009 (ip), vehicle: saline 96 % of control | dose: 15.62 mg/kg/injection, schedule: Q01DX009 (ip), vehicle: saline 105 % of control | dose: 31.25 mg/kg/injection, schedule: Q01DX009 (ip), vehicle: saline 96 % of control

COc1ccc(CCN(CC(=O)O)S(=O)(=O)c2ccc(C)cc2)cc1OC
inactive: [15] 91 % of control | [16] 100 % of control | [17] 100 % of control

Reference: PubChem BioAssay AID248 (DTP/NCI, 2004)
